Active and inactive are the calls of the source. No cut-off for these calls is given here.
Experiments:
[1] = target: T1, GTPase KRas (Homo sapiens, UniProt P01116, G12C); test: Inhibition of recombinant biotinylated KRAS G12C mutant (unknown origin) assessed as human SOS catalyzed nucleotide exchange measured after 60 mins by TR-FRET based guanine nucleotide exchange assay
[2] = target: T1, GTPase KRas; test: Inhibition of KRAS G12C mutant in human NCI-H358 cells assessed as reduction in Erk1/2 phosphorylation level measured for 8 hrs by Western blot analysis; format: cell-based
[3] = Plasma clearance in fasted Wistar-Han rat measured up to 24 hrs by LC-MS/MS analysis; format: ADME
[4] = Unbound plasma clearance in fasted Wistar-Han rat measured up to 24 hrs by LC-MS/MS analysis; format: ADME
[5] = MRT in fasted Wistar-Han rat measured up to 24 hrs by LC-MS/MS analysis; format: ADME; details: in vivo
[6] = Oral bioavailability in fasted Wistar-Han rat measured up to 24 hrs by LC-MS/MS analysis; format: ADME, organism-based; details: in vivo
[7] = Apparent permeability in MDCK-II cells; format: ADME, cell-based, Canis lupus familiaris; details: dog
[8] = Plasma clearance in male Beagle dog measured up to 24 hrs by LC-MS/MS analysis; format: ADME, Canis lupus familiaris
[9] = Unbound plasma clearance in male Beagle dog measured up to 24 hrs by LC-MS/MS analysis; format: ADME, Canis lupus familiaris
[10] = MRT in male Beagle dog measured up to 24 hrs by LC-MS/MS analysis; format: ADME, Canis lupus familiaris; details: in vivo
[11] = Oral bioavailability in male Beagle dog measured up to 24 hrs by LC-MS/MS analysis; format: ADME, organism-based, Canis lupus familiaris; details: in vivo
[12] = Oral bioavailability in fasted Wistar-Han rat measured up to 24 hrs pre-dosed with ABT by LC-MS/MS analysis; format: ADME, organism-based; details: in vivo
[13] = tested on: MIA PaCa-2; test: In vivo antitumor activity against […] cells xenografted in rat model assessed as decrease in tumor volume at 30 mg/kg, po qd measured up to 21 days; format: functional, organism-based; details: Homo sapiens, time <= 21.0 day
[14] = tested on: PDX LU2512; test: In vivo antitumor activity against patient-derived PDX LU2512 cells xenografted in rat model assessed as decrease in tumor volume at 30 mg/kg, po qd measured up to 21 days; format: functional, organism-based; details: Homo sapiens, time <= 21.0 day
[15] = tested on: PDX LU2529; test: In vivo antitumor activity against patient-derived PDX LU2529 cells xenografted in rat model assessed as decrease in tumor volume at 30 mg/kg, po qd measured up to 21 days; format: functional, organism-based; details: Homo sapiens, time <= 21.0 day

T1 sequence (P01116 whole entry G12C): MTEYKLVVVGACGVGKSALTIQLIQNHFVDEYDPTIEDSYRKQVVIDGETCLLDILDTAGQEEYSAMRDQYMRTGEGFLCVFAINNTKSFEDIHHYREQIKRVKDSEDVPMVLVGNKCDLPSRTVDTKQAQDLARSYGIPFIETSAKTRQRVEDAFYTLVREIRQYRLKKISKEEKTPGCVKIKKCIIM

IC50 [1] [nM] | IC50 [2] [nM] | clearance [3] [mL/min/kg] | CL free [4] [mL/min/kg] | MRT [5] [h] | bioavailability [6] [%] | Papp [7] [×10⁻⁶ cm/s] | clearance [8] [mL/min/kg] | CL free [9] [mL/min/kg] | MRT [10] [h] | bioavailability [11] [%] | bioavailability [12] [%] | Compound | Activity [13] | Activity [14] | Activity [15]
6.9 | 16 | 40 | 407 | 0.7 | 12 |  |  |  |  |  |  | C=CC(=O)N1C[C@H](C)N(c2nc(=O)n3c4nc(c(F)cc24)-c2c(F)cc(F)cc2OCCOc2ccnc(C(C)C)c2-3)C[C@H]1C |  |  | 
1410 | 3830 |  |  |  |  |  |  |  |  |  |  | C=CC(=O)N1CCN(c2nc(=O)n3c4nc(c(Cl)cc24)-c2c(F)cccc2OCCc2ccccc2-3)[C@@H](C)C1 |  |  | 
1.1 | 8.9 | 10 | 270 | 2.6 | 53 | 31 | 9.7 | 194 | 2.5 | 76 |  | C=CC(=O)N1C[C@H](C)N(c2nc(=O)n3c4nc(c(F)cc24)-c2c(F)cc(F)cc2OCC(F)(F)CCc2ccnc(C(C)C)c2-3)C[C@H]1C |  |  | 
2.9 | 6.6 | 9.7 | 113 | 2.3 | 12 | 23 | 18 | 160 | 2.2 | 59 |  | C=CC(=O)N1C[C@H](C)N(c2nc(=O)n3c4nc(c(F)cc24)-c2c(F)cccc2OCC(F)(F)CCc2ccnc(C(C)C)c2-3)C[C@H]1C |  |  | 
6.5 | 11 | 49 | 299 | 0.6 | 5 | 8 |  |  |  |  | 11 | C=CC(=O)N1C[C@H](C)N(c2nc(=O)n3c4nc(c(F)cc24)-c2c(F)cccc2OCCOc2ccnc(C(C)C)c2-3)C[C@H]1C |  |  | 
5.3 | 10 | 26 | 434 | 0.7 | 10 | 9 |  |  |  |  |  | C=CC(=O)N1C[C@H](C)N(c2nc(=O)n3c4nc(c(F)cc24)-c2c(ccc(F)c2F)OCCOc2ccnc(C(C)C)c2-3)C[C@H]1C |  |  | 
3 | 5.2 | 13 | 213 | 1.8 | 42 | 25 | 7.3 | 128 | 3.3 | 80 |  | C=CC(=O)N1C[C@H](C)N(c2nc(=O)n3c4nc(c(F)cc24)-c2c(ccc(F)c2F)OCC(F)(F)CCc2ccnc(C(C)C)c2-3)C[C@H]1C |  |  | 
3.5 | 28 | 13 | 126 | 1.4 | 25 | 15 | 32 | 130 | 0.8 | 67 |  | C=CC(=O)N1C[C@H](C)N(c2nc(=O)n3c4nc(c(F)cc24)-c2c(F)ccc(F)c2OCCOc2ccnc(C(C)C)c2-3)C[C@H]1C |  |  | 
4.5 | 30 | 12 | 148 | 0.9 | 17 | 13 |  |  |  |  |  | C=CC(=O)N1C[C@H](C)N(c2nc(=O)n3c4nc(c(C)cc24)-c2c(F)ccc(F)c2OCCOc2ccnc(C(C)C)c2-3)C[C@H]1C |  |  | 
1.2 | 9 | 22 | 606 | 1.1 | 61 | 20 | 28 | 243 | 1.1 | 58 |  | C=CC(=O)N1C[C@H](C)N(c2nc(=O)n3c4nc(c(Cl)cc24)-c2c(F)ccc(F)c2OCCOc2ccnc(C(C)C)c2-3)C[C@H]1C | Active | Active | Active
1.2 | 4.8 | 80 | 770 | 0.4 | 2 | 17 |  |  |  |  | 50 | C=CC(=O)N1CCN(c2nc(=O)n3c4nc(c(F)cc24)-c2c(F)cccc2OCCCCc2ccnc(C(C)C)c2-3)[C@@H](C)C1 |  |  | 
11 | 21 |  |  |  |  |  |  |  |  |  |  | C=CC(=O)N1CCN(c2nc(=O)n3c4nc(c(F)cc24)-c2c(F)cccc2OCCCOc2ccnc(C(C)C)c2-3)[C@@H](C)C1 |  |  | 

Compound | IC50 [1] [nM] | IC50 [2] [nM] | clearance [3] [mL/min/kg] | CL free [4] [mL/min/kg] | MRT [5] [h] | bioavailability [6] [%] | Papp [7] [×10⁻⁶ cm/s] | clearance [8] [mL/min/kg] | CL free [9] [mL/min/kg] | MRT [10] [h] | bioavailability [11] [%] | bioavailability [12] [%] | Activity [13] | Activity [14] | Activity [15]
C=CC(=O)N1CCN(c2nc(=O)n3c4nc(c(F)cc24)-c2c(F)cccc2OCCCc2ccnc(C(C)C)c2-3)[C@@H](C)C1 | 4.3 | 5.4 |  |  |  |  |  |  |  |  |  |  |  |  | 
C=CC(=O)N1C[C@H](C)N(c2nc(=O)n3c4nc(c(F)cc24)-c2c(F)cccc2OCCCc2ccnc(C(C)C)c2-3)C[C@H]1C | 1.7 | 7.4 |  |  |  |  |  |  |  |  |  |  |  |  | 

Source: ChEMBL document CHEMBL6078617, “Discovery of MK-1084: An Orally Bioavailable and Low-Dose KRASG12C Inhibitor” (J Med Chem, 2024)
